In ChEMBL document CHEMBL1201862, “PubChem BioAssay data set” (2004):
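Assay format: 96-well plates, 48-hour exposure. GI50: concentration for 50% inhibition of growth.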 Activity calls are given as the source filed them. Rule as the data show it: active = GI50 up to about 1.1 µM and inactive = higher.

Tests used:
Assay in all cases: NCI tumour cell line growth inhibition, 48 h
786-0 = tested on: 786-0
NCI-H226 = tested on: NCI-H226
SN12C = tested on: SN12C
OVCAR-8 = tested on: OVCAR-8
K562 = tested on: K562
UO-31 = tested on: UO-31
ACHN = tested on: ACHN
NCI-H460 = tested on: NCI-H460
HL-60 = tested on: HL-60
M14 = tested on: M14
U-251 = tested on: U-251
NCI-H522 = tested on: NCI-H522
KM12 = tested on: KM12
SR = tested on: SR
SF-295 = tested on: SF-295
IGROV-1 = tested on: IGROV-1
Malme-3M = tested on: Malme-3M
SNB-75 = tested on: SNB-75
LXFL 529 = tested on: LXFL 529
UACC-62 = tested on: UACC-62
OVCAR-4 = tested on: OVCAR-4
OVCAR-3 = tested on: OVCAR-3
HCC 2998 = tested on: HCC 2998
EKVX = tested on: EKVX
SF-268 = tested on: SF-268
MOLT-4 = tested on: MOLT-4
TK-10 = tested on: TK-10
KM-20L2 = tested on: KM-20L2
SW-620 = tested on: SW-620
CAKI-1 = tested on: CAKI-1
HT-29 = tested on: HT-29
RPMI-8226 = tested on: RPMI-8226
A498 = tested on: A498
HOP-92 = tested on: HOP-92
SK-MEL-28 = tested on: SK-MEL-28
A549 = tested on: A549
SK-MEL-2 = tested on: SK-MEL-2
SK-OV-3 = tested on: SK-OV-3
NCI-H23 = tested on: NCI-H23
UACC-257 = tested on: UACC-257
SK-MEL-5 = tested on: SK-MEL-5
SNB-78 = tested on: SNB-78
OVCAR-5 = tested on: OVCAR-5
CCRF-CEM = tested on: CCRF-CEM
DLD-1 = tested on: DLD-1
SNB-19 = tested on: SNB-19
HOP-62 = tested on: HOP-62

Measured: GI50

O=C(O)c1cc(=O)c2cc(C(=O)c3cccs3)c(Cl)c(Cl)c2o1
inactive: 786-0 > 100 µM | NCI-H226 > 100 µM | SN12C > 100 µM | OVCAR-8 > 100 µM | K562 > 100 µM | UO-31 > 100 µM | ACHN > 100 µM | NCI-H460 > 100 µM | HL-60 > 100 µM | M14 > 100 µM | U-251 > 100 µM | NCI-H522 > 100 µM | KM12 > 100 µM | SR > 100 µM | SF-295 > 100 µM | IGROV-1 > 100 µM | Malme-3M > 100 µM | SNB-75 > 100 µM | LXFL 529 > 100 µM | UACC-62 > 100 µM | OVCAR-4 > 100 µM | OVCAR-3 > 100 µM | HCC 2998 > 100 µM | EKVX > 100 µM | SF-268 > 100 µM | MOLT-4 > 100 µM | TK-10 > 100 µM | KM-20L2 > 100 µM | SW-620 > 100 µM | CAKI-1 > 100 µM | HT-29 > 100 µM | RPMI-8226 > 100 µM | A498 > 100 µM | HOP-92 > 100 µM | SK-MEL-28 > 100 µM | A549 > 100 µM | SK-MEL-2 > 100 µM | SK-OV-3 > 100 µM | NCI-H23 > 100 µM | UACC-257 > 100 µM | SK-MEL-5 > 100 µM | SNB-78 > 100 µM | OVCAR-5 > 100 µM | CCRF-CEM > 100 µM | DLD-1 > 100 µM | SNB-19 > 100 µM | HOP-62 > 100 µM
